Laboratory results from ChEMBL document CHEMBL1132541, “New quaternary ammonium oxicam derivatives targeted toward cartilage: synthesis, pharmacokinetic studies, and antiinflammatory potency” (J Med Chem, 1999).

Tested on: Rattus norvegicus
Experiment: Maximal blood concentration after oral administration of a 30 umol/kg dose of compound
Type: ADME, organism-based
Parameters: dose 30 umol/kg, route oral
Details: in vivo

| Cmax [nmol/g] | Structure (SMILES) |
| --- | --- |
| 5.5 | CN1C(C(=O)Nc2cccc[n+]2C)=C(O)c2ccccc2S1(=O)=O.[I-] |
| 47.8 | CN1C(C(=O)Nc2ccccn2)=C(O)c2ccccc2S1(=O)=O [PIROXICAM] |
